Among the data in ChEMBL document CHEMBL1135350, “Synthesis of an arabinofuranosyl disaccharide photoaffinity probe for arabinosyltransferase activity in Mycobacterium tuberculosis” (Bioorg Med Chem Lett, 2002) are Km and Vmax (pM min-1 mg-1) values, retold here.

In this test the test system is Mycobacterium tuberculosis. The test is described as follows: Enzyme kinetic constant of compound for Arabinosyltransferase in Mycobacterium tuberculosis was determined.

In the case of `[N-]=[N+]=Nc1cccc2c(S(=O)(=O)NCCOC3O[C@H](COC4O[C@H](CO)[C@@H](O)[C@H]4O)[C@@H](O)[C@H]3O)cccc12` (some centres not stated), the Km – broadly, the substrate concentration at which the rate is half of its maximum – is 3.07 mM and the Vmax (pM min-1 mg-1) turned out to be 4.26.
